Assays:
Assay type in all cases: physicochemical
[1] = reconstitution / dissolution of the formulation in aqueous solvents; conditions: 0.9% w/v saline, saline or isotonic, thermodynamic from solid; read-out: solubility (concentration dissolved)
Procedure: One sample was reconstituted with 2 mL of water. Dissolution was complete within 1-2 minutes of shaking. The entire solution was transferred to a volumetric flask, diluted, and analyzed by HPLC for content of N-(2-pyrazine)carbonyl-L-phenylalanine-L-leucine boronic acid. The total drug content was 1.09 mg. A second sample was reconstituted with 1 mL of propylene glycol:EtOH:H2O, 40:10:50. Dissolution was complete with 1 minute of shaking. The total drug content was 1.11 mg.
The lyophilized formulation was also reconstituted with 0.9% w/v saline. The lyophilized material dissolved readily at concentrations up to 6 mg/mL.
(§1) The lyophilized product was prepared according to Example 1, and samples (2.5 mg/vial) were reconstituted with 2.5 mL of 0.9% w/v sterile saline. […] No special care was taken to protect the solution from light.

[2] = storage stability determined by HPLC analysis
Procedure: The product was obtained as a white amorphous powder. The product was stable for more than 2 years when stored at −20° C., as determined by HPLC analysis (purity >97%). When stored at 2-8° C., the product was not stable for longer than 3-6 months.
When stored at 2-8° C., the liquid formulation was not stable for longer than 6 months, as determined by HPLC analysis.
The lyophilized product was prepared according to Example 1 and stored at 5° C., ambient temperature, 37° C., and 50° C. Stability was monitored for approximately 18 months by periodically reconstituting a sample and analyzing the entire contents of the bottle by HPLC.
as §1

[3] = dynamic vapor sorption studies; conditions: crystalline product

Row | solubility [1] [µg/mL] | time stable on storage ([2]; stored at 2-8° C., HPLC analysis) | time stable on storage ([2]; stored at −20° C., HPLC analysis (purity >97%)) | SMILES | hygroscopicity [3]
1 | < 1000 | 3-6 months | more than 2 years | CC(C)C[C@H](NC(=O)[C@H](Cc1ccccc1)NC(=O)c1cnccn1)B(O)O [N-(2-pyrazine)carbonyl-L-phenylalanine-L-leucine boronic acid] | –
2 | – | – | – | CC(C)C[C@H](NC(=O)[C@H](Cc1ccccc1)NC(=O)c1cnccn1)B1OB([C@H](CC(C)C)NC(=O)[C@H](Cc2ccccc2)NC(=O)c2cnccn2)OB([C@H](CC(C)C)NC(=O)[C@H](Cc2ccccc2)NC(=O)c2cnccn2)O1 [N-(2-pyrazine)carbonyl-L-phenylalanine-L-leucine boroxine] | non-hygroscopic
